Converted amounts (≈) assume the structure as drawn. Like-named read-outs stand apart in the source and are kept apart here. Positions of bridges follow the written chain, without caps; N, C: chain ends. Residues, ends and D or L forms follow the SMILES beside them.
How the values were obtained:
S. enterica = test system: S. enterica; design: method as in PMID 35543514; conditions: sensitive strain S. enterica; ref [63]; cited from earlier work
Source text: Table 1 Minimum inhibitory concentration (MIC) of the antimicrobial compounds tested (provided in µg/mL and in µmol/L) and residual activities over time in the cecal fermentation medium, after the introduction of the compounds at 25 (top) or 250 times (bottom) the minimal inhibitory concentration (MIC).

[1] = test system: Salmonella enterica subsp. enterica serotype Newport ATCC 6962
chicken cecal microbiota [2] = experiment: Batch fermentation of chicken cecal microbiota, 16S rRNA gene sequencing; assay type: cell-based, broiler chickens; conditions: for Impact on genera / microbiota composition, in words: 24 h of culture; for Beta diversity (PCoA of weighted Unifrac), in words: 24 h of fermentation; for Effect on bacterial classes, in words: 12 h of cecal fermentation; for Abundance of Clostridia, in words: 25 vs 250 x MIC
chicken cecal microbiota [3] = experiment: Short-chain fatty acids in batch fermentation supernatant; assay type: cell-based, broiler chickens; conditions: 24 h; for Acetate production, in words: 250 times the MIC
[4] = test system: Salmonella enterica subsp. enterica serotype Newport ATCC 6962; experiment: Residual activity in cecal fermentation medium, agar well diffusion; conditions: over the 24 h of fermentation; agar diffusion tests
C. perfringens = conditions: sensitive strain C. perfringens; ref [62]; cited from earlier work
[5] = test system: Streptococcus pyogenes RBL4; experiment: Residual activity in cecal fermentation medium, agar well diffusion; assay type: in vitro ADME; conditions: over the 24 h of fermentation; based on inhibition diameters
Protocol: Sterile Viande Levure (VL) medium (16 mL in 50 mL penicillin bottles), supplemented with Tween 80, bile salts, minerals, vitamins, porcine mucin (2.0 g/L), fructo-oligosaccharide (2.5 g/L), and citrus pectin (2.5 g/L), as described previously, and adjusted to pH 6 with 5 M NaOH, was inoculated with […] fecal slurry (10% inoculum, w/v). The antimicrobial compound was added in a volume of 1 mL to obtain 25 or 250 times the minimal inhibitory concentration (Table 1).
To ensure anaerobic conditions, the bottles were inoculated and sealed in an oxygen-free chamber. They were incubated at 41 °C and 80 rpm on an orbital shaker for up to 24 h. For each experimental treatment, samples were collected at 0, 12, and 24 h and kept at −80 °C until analysis.
The inhibitory activity of each antimicrobial agent was assessed qualitatively in terms of inhibition zones around agar wells. Briefly, 80 μL of sample was added to wells in pour plates (25 mL) seeded with 250 µL of overnight culture of indicator strain. Following 18 h of incubation at the appropriate temperature, inhibition diameters were measured. Photographs were taken using ChemiDoc XRS (Bio-Rad, Hercules, CA, USA).

L. ivanovii = test system: L. ivanovii; design: method as in PMID 35170996; conditions: sensitive strain L. ivanovii; ref [64]; cited from earlier work
Listeria ivanovii HPB28 = experiment: Residual activity in cecal fermentation medium, agar well diffusion; conditions: over the 24 h of fermentation; agar diffusion tests

## O=C(O)c1cn(C2CC2)c2cc(N3CCNCC3)c(F)cc2c1=O [Ciprofloxacin]
S. enterica
  MIC (µM): 0.60 µM (≈ 0.199 µg/mL)
  MIC (µg/mL): 0.19 µg/mL (≈ 0.573 µM)
[1]
  Residual Activity 0 h: +++ +++
Chicken cecal microbiota [2]
  Impact on genera / microbiota composition, in words: impacted Gram-positive (Clostridia, Enterococcus and Streptococcus) as well as Gram-negative bacteria (Escherichia/Shigella and Gallibacterium)
Chicken cecal microbiota [2]; after 24 h
  Genera Enterococcus, in words: reduced

## CC[C@H](C)[C@H](NC(=O)CNC(=O)[C@@H](NC(=O)[C@H](Cc1ccccc1)NC(=O)[C@H](Cc1ccc(O)cc1)NC(=O)[C@@H]1CCC(=O)NCC(=O)NCC(=O)N[C@@H](C)C(=O)NCC(=O)N[C@@H](Cc2cnc[nH]2)C(=O)N[C@@H](C(C)C)C(=O)N2CCC[C@H]2C(=O)N1)C(C)C)C(=O)NCC(=O)N[C@H](C(=O)N1CCC[C@H]1C(=O)N[C@H](C(=O)N[C@@H](CO)C(=O)N[C@@H](Cc1ccccc1)C(=O)N[C@@H](Cc1ccc(O)cc1)C(=O)NCC(=O)O)[C@@H](C)CC)[C@@H](C)O [Microcin J25] (GGAGHVPEYFVGIGTPISFYG-OH; lactam N-8)
[1]
  Stability of inhibitory activity in batch fermentation, in words: significant inhibitory activity at 24 h

## CO[C@H]1/C=C/O[C@@]2(C)Oc3c(C)c(O)c4c(O)c(c(/C=N/N5CCN(C)CC5)c(O)c4c3C2=O)NC(=O)/C(C)=C\C=C\[C@H](C)[C@H](O)[C@@H](C)[C@@H](O)[C@@H](C)[C@H](OC(C)=O)[C@@H]1C [Rifampicin]
S. enterica
  MIC (µM): 0.47 µM (≈ 0.387 µg/mL)
  MIC (µg/mL): 0.39 µg/mL (≈ 0.474 µM)
Chicken cecal microbiota [3]
  Acetate production, in words: reached maximal ranges
Chicken cecal microbiota [2]; 24 h, concentrations not assigned
  Relative abundance of Bacteroidia: 0.02
Chicken cecal microbiota [2]
  Impact on genera / microbiota composition, in words: mainly impacted the genera Bacteroides and Parabacteroides
  Beta diversity (PCoA of weighted Unifrac), in words: tended to cluster separately
Chicken cecal microbiota [2]; after 24 h, lowest concentration
  Genera Enterococcus, in words: reduced

## CN(C)[C@@H]1C(O)=C(C(N)=O)C(=O)[C@@]2(O)C(O)=C3C(=O)c4c(O)cccc4[C@@](C)(O)[C@H]3C[C@@H]12 [Tetracycline]
[1]
  Residual Activity 6 h: +++ +++
[4]
  Stability of inhibitory activity in batch fermentation, in words: remained highly active
Chicken cecal microbiota [2]
  Impact on genera / microbiota composition, in words: mainly affected the Gram-negative bacteria Gallibacterium and the Gram-positive bacteria Phascolarctobacterium
Chicken cecal microbiota [2]; after 24 h
  Genera Enterococcus, in words: reduced

## Bacitracin
C. perfringens
  MIC: 1.50 µg/mL
[5]
  Stability of inhibitory activity in batch fermentation, in words: least stable
Chicken cecal microbiota [3]
  Acetate production, in words: reached maximal ranges
Chicken cecal microbiota [3]; UHPLC-UV 210 nm
  Butyrate levels, in words: significant decrease
Chicken cecal microbiota [2]
  Effect on bacterial classes, in words: dose-dependent effects
  Impact on genera / microbiota composition, in words: mainly impacted Streptococcus and Ruminococcus together with different Clostridia (Lachnoclostridium, Erysipelatoclostridium, and Oscillibacter), while promoting the genera Escherichia/Shigella

## Colistin
S. enterica
  MIC (µM): 0.69 µM
  MIC (µg/mL): 0.80 µg/mL
[1]
  Residual Activity 0 h: ++ ++
  Residual Activity 6 h: ++ ++
  Residual Activity 12 h: ++ ++
  Residual Activity 24 h: ++ ++
Chicken cecal microbiota [3]; highest concentration
  Butyrate levels, in words: tended to decrease
Chicken cecal microbiota [2]
  Relative abundance of Escherichia, in words: dropped
  Abundance of Clostridia, in words: dose-dependent decrease
  Effect on bacterial classes, in words: dose-dependent effects
  Impact on genera / microbiota composition, in words: strongly impaired Escherichia/Shigella together with other Gram-negative bacteria (Gallibacterium and Butyricimonas)
Chicken cecal microbiota [2]; 25× MIC
  Relative abundance of Gammaproteobacteria: 0.03
Chicken cecal microbiota [2]; after 12 h, compared to bacitracin, rifampicin, tetracycline, MccE492 and nisin
  Alpha diversity (Shannon entropy), in words: lower alpha diversity
Chicken cecal microbiota [2]; after 24 h
  Alpha diversity (Shannon entropy), in words: lowest alpha diversity

## Nisin Z
L. ivanovii
  MIC (µM): 0.18 µM
  MIC (µg/mL): 1.56 µg/mL
Chicken cecal microbiota [3]
  Acetate production, in words: reached maximal ranges
Chicken cecal microbiota [3]; lowest concentration
  Butyrate levels, in words: tended to decrease
Chicken cecal microbiota [2]
  Abundance of Clostridia, in words: dose-dependent decrease
  Effect on bacterial classes, in words: dose-dependent effects
  Impact on genera / microbiota composition, in words: had the most impact on microbiota composition
  Beta diversity (PCoA of weighted Unifrac), in words: tended to cluster separately
Chicken cecal microbiota [2]; after 24 h
  Genera Enterococcus, in words: reduced
Chicken cecal microbiota [2]; t0, as compared to control
  Alpha diversity (Shannon entropy), in words: highest diversity

## Pediocin PA-1 (M31L) (KYYGNGVTCGKHSCSVDWGKATTCIINNGALAWATGGHQGNHKC; UniProt P29430 19-62, looked up, variant M31L) [44 aa linear peptide containing two disulfide bridges, M31L variant, prepared by solid-phase peptide synthesis]
Listeria ivanovii HPB28
  Stability of inhibitory activity in batch fermentation, in words: weak activity
Chicken cecal microbiota [3]; lowest concentration
  Butyrate levels, in words: tended to decrease
Chicken cecal microbiota [2]
  Effect on bacterial classes, in words: dose-dependent effects
  Impact on genera / microbiota composition, in words: moderate effect
Chicken cecal microbiota [2]; after 24 h, highest concentration
  Genera Enterococcus, in words: reduced

B1: Microcin E492 (peptide, UniProt Q9Z4N4 16-99, looked up)
Microcin E492: GETDPNTQLLNDLGNNMAWGAALGAPGGLGSAALGAAGGALQTVGQGLIDHGPVNVPIPVLIGPSWNGSGSGYNSATSSSGSGS
notes: 84 aa siderophore peptide produced by Klebsiella pneumoniae, produced heterologously in E. coli MC4100
S. enterica
  MIC (µM): 0.18 µM
  MIC (µg/mL): 1.56 µg/mL
Chicken cecal microbiota [2]
  Impact on genera / microbiota composition, in words: only minor effects
Chicken cecal microbiota [2]; after 24 h
  Genera Enterococcus, in words: reduced
Chicken cecal microbiota [2]; class level
  Alteration in the relative abundance of the identified taxa, in words: neither MccJ25 nor MccE492 induced a statistically significant alteration
Chicken cecal microbiota [2]; t0, as compared to control
  Alpha diversity (Shannon entropy), in words: highest diversity

Source: paper PMC11765717, “In Vitro Insights into Bacteriocin-Mediated Modulation of Chicken Cecal Microbiota” (International Journal of Molecular Sciences, 2025)
